Test results: paper PMC6193938, “Characterization of a novel AICARFT inhibitor which potently elevates ZMP and has anti-tumor activity in murine models” (Scientific Reports, 2018)
pIC50: −log10 of the molar value. Where two headings read alike, the source gives them in different places.

System: panel of human cell lines
Assay: In vitro proliferation assay, Cell Titer Glo, two doubling times, 298 cell lines
Type: cell-based
Conditions: Homo sapiens, read-out: ABS_IC50_VALUE
Text: Cell Titer Glo measures ATP, thus the IC50s represent both the effect on purine production and cell proliferation, which are related. […] Folates are actively taken up in cells by reduced folate carrier (SLC19A1), proton-coupled folate transporter (SLC46A1), and the FOLR1 folate receptor[17]. Once inside the cell, folates are trapped by polyglutamation catalyzed by folylpolyglutamate synthetase (FPGS). […] Gene expression data for ATIC, GART, APRT, HPRT, FOLR1, SLC19A1, SLC46A1 & FPGS are shown in Fig. 2, since these genes were anticipated to predict sensitivity. […] The MDA-MB-231 cell line is reduced folate carrier (SLC19A1) negative due to epigenetic silencing.
Cells were cultured using recommended culture conditions unless noted otherwise (Supplemental Table 3). Cells were plated, dosed with compound and incubated at 37 °C for approximately 2 doubling times as determined for each cell line. Cell Titer Glo (Promega) assay was used to measure proliferation according to manufacturer’s recommendations by measuring luminescence with Flexstation3 (Molecular Devices) with 500 ms integration time. […] The % response was fit to a four-parameter logistic equation using ACTIVITYBASE 4.0 to determine the absolute IC50 values.
Cell Lines: Cell lines of adrenal gland, autonomic ganglia, biliary tract, blood ALL, blood AML, blood CML, blood hodgkin lymphoma, blood lymphoma, blood multiple myeloma, blood NHL, blood RAEB, bone, breast ER+, breast fibroblast, breast fibroblast mixed, breast HER2, breast normal, breast triple negative, cervix, CNS, endometrium, eye, fibroblast normal, kidney ns, kidney renal, large intestine, liver, liver normal, lung adenocarcinoma, lung ns, lung NSCLC, lung NSCLC mixed, lung SCLC, lung squamous, melanoma, melanoma normal, esophagus adenocarcinoma, esophagus ns, esophagus squamous, ovary, pancreas adenocarcinoma, pancreas ductal carcinoma, pancreas ns, pleura mesothelioma, prostate adenocarcinoma, prostate small cell, salivary gland, small intestine, soft tissue, stomach, testis, thyroid, thyroid squamous, umbilical vein endothelial cell normal, upper aerodigestive tract squamous, urinary tract ns, urinary tract transitional cell carcinoma, and vulva squamous origin were obtained from ATCC, CASTCC, CLS, DSMZ, ECACC, HSRRB, ICLC, JCRB, NCI, Riken and SNU cell banks. The murine A9 cell line was acquired from the ATCC (CCL-1.4).

O=c1[nH]ccc2cc(F)c(NS(=O)(=O)c3ccc(N4CC[C@@H](O)C4)s3)cc12 [LSN3213128, N-(6-Fluoro-1-oxo-1,2-dihydroisoquinolin-7-yl)-5-[(3R)-3-hydroxypyrrolidin-1-yl]thiophene-2-sulfonamide]
pIC50 (NCI-H661, NCI-H661, lung): 4.79 | pIC50 (NCI-H716, NCI-H716, large intestine): 5.87 | pIC50 (NCI-H929, NCI-H929, haematopoietic and lymphoid tissue): < 4.70 | pIC50 (NCI-H1048, NCI-H1048, lung): < 4.70 | pIC50 (NCI-H1092, NCI-H1092, lung): < 4.70 | pIC50 (NCI-H1105, lung): < 4.70 | pIC50 (NCI-H1155, NCI-H1155, lung): 4.87 | pIC50 (NCI-H1299, NCI-H1299, lung): 5.88 | pIC50 (NCI-H1341, lung): 5.55 | pIC50 (NCI-H1355, NCI-H1355, lung): < 4.70 | pIC50 (NCI-H1395, NCI-H1395, lung): 4.90 | pIC50 (NCI-H1435, NCI-H1435, lung): < 4.70 | pIC50 (NCI-H1437, NCI-H1437, lung): 5.86 | pIC50 (NCI-H1573, NCI-H1573, lung): < 4.70 | pIC50 (NCI-H1581, NCI-H1581, lung): 4.78 | pIC50 (NCI-H1618, lung): < 4.70 | pIC50 (NCI-H1623, NCI-H1623, lung): < 4.70 | pIC50 (NCI-H1648, NCI-H1648, lung): < 4.70 | pIC50 (NCI-H1650, NCI-H1650, lung): 5.09 | pIC50 (NCI-H1651, NCI-H1651, lung): < 4.70 | pIC50 (NCI-H1666, NCI-H1666, lung): < 4.70 | pIC50 (NCI-H1694, NCI-H1694, lung): < 4.70 | pIC50 (NCI-H1703, NCI-H1703, lung): < 4.70 | pIC50 (NCI-H1734, NCI-H1734, lung): < 4.70 | pIC50 (NCI-H1781, NCI-H1781, lung): < 4.70 | pIC50 (NCI-H1792, NCI-H1792, lung): 5.07 | pIC50 (NCI-H1793, NCI-H1793, lung): < 4.70 | pIC50 (NCI-H1836, NCI-H1836, lung): 5.61 | pIC50 (NCI-H1838, NCI-H1838, lung): < 4.70 | pIC50 (NCI-H1876, lung): < 4.70 | pIC50 (NCI-H1930, NCI-H1930, lung): 4.75 | pIC50 (NCI-H1944, NCI-H1944, lung): < 4.70 | pIC50 (NCI-H1975, NCI-H1975, lung): 5.67 | pIC50 (NCI-H2009, NCI-H2009, lung): < 4.70 | pIC50 (NCI-H2023, NCI-H2023, lung): < 4.70 | pIC50 (NCI-H2029, NCI-H2029, lung): < 4.70 | pIC50 (NCI-H2030, NCI-H2030, lung): 5.09 | pIC50 (NCI-H2052, NCI-H2052, pleura): < 4.70 | pIC50 (NCI-H2066, NCI-H2066, lung): < 4.70 | pIC50 (NCI-H2081, NCI-H2081, lung): < 4.70 | pIC50 (NCI-H2085, lung): < 4.70 | pIC50 (NCI-H2087, NCI-H2087, lung): < 4.70 | pIC50 (NCI-H2122, NCI-H2122, lung): 5.91 | pIC50 (NCI-H2126, NCI-H2126, lung): < 4.70 | pIC50 (NCI-H2170, NCI-H2170, lung): 4.86 | pIC50 (NCI-H2171, NCI-H2171, lung): < 4.70 | pIC50 (NCI-H2227, lung): < 4.70 | pIC50 (NCI-H2228, NCI-H2228, lung): 5.15 | pIC50 (NCI-H2286, NCI-H2286, lung): 4.75 | pIC50 (NCI-H2347, NCI-H2347, lung): < 4.70 | pIC50 (NCI-H2405, NCI-H2405, lung): < 4.70 | pIC50 (NCI-H2452, NCI-H2452, pleura): < 4.70 | pIC50 (NCI-N87, NCI-N87, stomach): 5.62 | pIC50 (NCI-SNU-5, stomach): < 4.70 | pIC50 (NCI-SNU-16, stomach): 5.93 | pIC50 (NH-6, autonomic ganglia): < 4.70 | pIC50 (NMC-G1, central nervous system): < 4.70 | pIC50 (NOMO-1, NOMO-1, haematopoietic and lymphoid tissue): 5.69 | pIC50 (NUGC-3, NUGC-3, stomach): 4.92 | pIC50 (NUGC-4, NUGC-4, stomach): 5.08 | pIC50 (OCUM1, OCUM-1, stomach): 4.78 | pIC50 (OE19, OE19, oesophagus): 5.19 | pIC50 (OE33, OE33, oesophagus): 4.90 | pIC50 (ONS-76, ONS-76, central nervous system): 5.44 | pIC50 (OVCAR-3, OVCAR-3, ovary): 4.90 | pIC50 (OVMANA, ovary): 5.59 | pIC50 (P31-FUJ, haematopoietic and lymphoid tissue): 6.15 | pIC50 (PC-3, prostate): < 4.70 | pIC50 (PF-382, PF-382, haematopoietic and lymphoid tissue): 5.67 | pIC50 (Panc 04.03, Panc 04.03, pancreas): 5.26 | pIC50 (Pfeiffer, haematopoietic and lymphoid tissue): 5.59 | pIC50 (QGP-1, QGP-1, pancreas): 4.97 | pIC50 (RD, soft tissue): 5.04 | pIC50 (RD-ES, bone): 5.07 | pIC50 (REH, haematopoietic and lymphoid tissue): 5.16 | pIC50 (RERF-LC-MS, lung): 5.72 | pIC50 (RKN, ovary): < 4.70 | pIC50 (RKO, large intestine): 5.09 | pIC50 (RL95-2, RL95-2, endometrium): < 4.70 | pIC50 (RL, haematopoietic and lymphoid tissue): 6.12 | pIC50 (RMG-I, ovary): < 4.70 | pIC50 (RPMI-7951, RPMI-7951, skin): < 4.70 | pIC50 (RPMI-8226, RPMI-8226, haematopoietic and lymphoid tissue): 4.90 | pIC50 (RT4, urinary tract): < 4.70 | pIC50 (RT112/84, RT112/84, urinary tract): 5.72 | pIC50 (Raji, haematopoietic and lymphoid tissue): 5.12 | pIC50 (Rec1, REC-1, haematopoietic and lymphoid tissue): < 4.70 | pIC50 (SCC-4, SCC-4, upper aerodigestive tract): < 4.70 | pIC50 (SCC-9, SCC-9, upper aerodigestive tract): < 4.70 | pIC50 (SCC-15, SCC-15, upper aerodigestive tract): < 4.70 | pIC50 (SCC-25, SCC-25, upper aerodigestive tract): < 4.70 | pIC50 (SH-10-TC, stomach): < 4.70 | pIC50 (SJRH30, SJRH30, soft tissue): 5.29 | pIC50 (SJSA-1, SJSA-1, bone): < 4.70 | pIC50 (SK-BR-3, SK-BR-3, breast): 5.19 | pIC50 (SK-CO-1, SK-CO-1, large intestine): 4.89 | pIC50 (SK-ES1, SK-ES-1, bone): < 4.70 | pIC50 (SK-HEP1, SK-HEP-1, liver): 4.96 | pIC50 (SK-LMS-1, SK-LMS-1, soft tissue): 6.04 | pIC50 (SK-LU-1, SK-LU-1 (lung, adenocarcinoma)): < 4.70 | pIC50 (SK-MEL3, SK-MEL-3 (skin, malignant melanoma)): < 4.70 | pIC50 (SK-MEL-2, SK-MEL-2 (skin, malignant melanoma)): < 4.70 | pIC50 (SK-MEL-5, SK-MEL-5 (skin, melanoma)): < 4.70 | pIC50 (SK-MEL-24, SK-MEL-24 (skin, malignant melanoma)): < 4.70 | pIC50 (SK-MEL-28, SK-MEL-28 (skin, malignant melanoma)): 6.33 | pIC50 (SK-MEL-31 (skin, malignant melanoma)): < 4.70 | pIC50 (SK-MES-1, SK-MES-1 (lung; squamous cell carcinoma)): 5.65 | pIC50 (SK-N-AS, SK-N-AS (brain, neuroblastoma)): < 4.70 | pIC50 (SK-OV-3, SK-OV-3 (ovary, adenocarcinoma)): < 4.70 | pIC50 (SNB-19, SNB19 (central nervous system, Glioblastoma)): 6.10 | pIC50 (SNG-M (endometrium, endometrial adenocarcinoma)): < 4.70 | pIC50 (SNU-182, SNU-182 (liver, hepatocellular carcinoma)): 4.68 | pIC50 (SNU-216, SNU-216 (stomach, Human gastric carcinoma)): < 4.70 | pIC50 (SNU-387, SNU-387 (liver, pleomorphic hepatocellular carcinoma)): 4.57 | pIC50 (SNU-398, SNU-398 (liver, hepatocellular carcinoma)): 4.78 | pIC50 (SNU-423, SNU-423 (liver, pleomorphic hepatocellular carcinoma)): 4.66 | pIC50 (SNU-449, SNU-449 (liver, hepatocellular carcinoma)): 4.95 | pIC50 (SNU-475, SNU-475 (liver, hepatocellular carcinoma)): 4.61 | pIC50 (SNU-C1, SNU-C1 (large intestine, colon, adenocarcinoma)): 5.34 | pIC50 (SNU-C2A (large intestine, cecum, colorectal carcinoma)): < 4.70 | pIC50 (SW48, SW48 (large intestine, colon, colorectal adenocarcinoma)): 5.16 | pIC50 (SW480, SW480 (large intestine, colon, colorectal adenocarcinoma)): 5.71 | pIC50 (SW837, SW837 (large intestine, rectum, adenocarcinoma)): 5.89 | pIC50 (SW1271, SW 1271 (lung; small cell lung carcinoma)): 4.98 | pIC50 (SW1353, SW 1353 (bone, chondrosarcoma)): < 4.70 | pIC50 (SW1417, SW1417 (large intestine, colon, colorectal adenocarcinoma)): < 4.70 | pIC50 (SW1463, SW1463 (large intestine, rectum, colorectal adenocarcinoma)): 4.82 | pIC50 (SW-620, SW620 (large intestine, colon, adenocarcinoma)): < 4.70 | pIC50 (T84 (large intestine, colon, colorectal carcinoma)): < 4.70 | pIC50 (T98G, T98G (central nervous system, glioblastoma multiforme)): 5.44 | pIC50 (TCC-SUP, TCCSUP (urinary bladder, transitional cell carcinoma)): 5.38 | pIC50 (TE-1 (oesophagus, esophageal squamous cell carcinoma)): 5.97 | pIC50 (TE-5 (oesophagus, esophageal squamous cell carcinoma)): 5.32 | pIC50 (TE-9 (oesophagus, esophageal squamous cell carcinoma)): 5.93 | pIC50 (TE-11, TE-11 (oesophagus, esophageal squamous cell carcinoma)): 5.69 | pIC50 (TE-15, TE-15 (oesophagus, esophageal squamous cell carcinoma)): 6.14 | pIC50 (THP-1, THP-1 (haematopoietic and lymphoid tissue, leukemia, acute monocytic)): 5.26 | pIC50 (TOV21G, TOV-21G (ovary, clear cell carcinoma)): < 4.70 | pIC50 (TT (thyroid, carcinoma)): 4.98 | pIC50 (Toledo, Toledo (haematopoietic and lymphoid tissue, diffuse large cell lymphoma)): < 4.70 | pIC50 (U-251, U251 (central nervous system, human glioma)): 5.52 | pIC50 (U-266, U-266 (haematopoietic and lymphoid tissue, myeloma; plasmacytoma)): 4.87 | pIC50 (UACC-812, UACC-812 (breast, ductal carcinoma)): < 4.70 | pIC50 (UMUC3, UM-UC-3 (urinary bladder, transitional cell carcinoma)): 5.71 | pIC50 (VCaP, VCaP (prostate, prostate cancer)): 5.11 | pIC50 (VMRC-RCZ (kidney, renal cancer)): 5.12 | pIC50 (WM 266-4, WM-266-4 (skin, melanoma)): < 4.70 | pIC50 (WM-115, WM-115 (skin, malignant melanoma)): < 4.70 | pIC50 (ZR-75-30, ZR-75-30 (breast, ductal carcinoma)): < 4.70
